Results: patent US10681909B2, “Herbicidal triazoles” (FMC Corporation, priority 2014, dated 2020)

Key:
wheat (winter wheat) = assay: Test C preemergence; type: in vivo, Triticum aestivum; conditions: for Wheat plant response rating (0 to 100): Preemergence, visual rating after 13 to 15 d; for Plant response rating (scale of 0 to 100 where 0 is no effect and 100 is complete control): Wheat, preemergence, 250 g ai/ha
Text: (§1) Seeds of plant species selected from blackgrass (Alopecurus myosuroides), ryegrass, Italian (Italian ryegrass, Lolium multiflorum), wheat (winter wheat, Triticum aestivum), galium (catchweed bedstraw, Galium aparine), corn (Zea mays), crabgrass, large (large crabgrass, Digitaria sanguinalis), foxtail, giant, (giant foxtail, Setaria faberii), johnsongrass (Sorghum halepense), lambsquarters (Chenopodium album), morningglory (Ipomoea coccinea), nutsedge, yellow (yellow nutsedge, Cyperus esculentus), pigweed (Amaranthus retroflexus), ragweed (common ragweed, Ambrosia elatior), soybean (Glycine max), barnyardgrass (Echinochloa crus-galli), oilseed rape (Brassica napus), waterhemp (common waterhemp, Amaranthus rudis), and velvetleaf (Abutilon theophrasti) were planted into a blend of loam soil and sand and treated preemergence with test chemicals formulated in a non-phytotoxic solvent mixture which included a surfactant. At the same time, plants selected from these crop and weed species and also chickweed (common chickweed, Stellaria media), oat, wild (wild oat, Avena fatua), and kochia (Kochia scoparia), were planted in pots containing Sunshine Redi-Earth® planting medium comprising spaghnum peat moss, vermiculite, starter nutrients and dolomitic limestone and treated with postemergence applications of test chemicals formulated in the same manner. Plants ranged in height from 2 to 18 cm (1- to 4-leaf stage) for postemergence treatments. […] A dash (-) response means no test result.

velvetleaf = assay: Test C preemergence; type: in vivo, Abutilon theophrasti; conditions: for Velvetleaf plant response rating (0 to 100): Preemergence, visual rating after 13 to 15 d; for Plant response rating (scale of 0 to 100 where 0 is no effect and 100 is complete control): Velvetleaf, preemergence, 250 g ai/ha
Text: as §1

bluegrass = assay: Test D postemergence; type: in vivo, Poa annua; conditions: scale 0 to 100
Text: (§2) Seeds of plant species selected from bluegrass (annual bluegrass, Poa annua), blackgrass (Alopecurus myosuroides), canarygrass (Phalaris minor), chickweed (common chickweed, Stellaria media), galium (catchweed bedstraw, Galium aparine), bromegrass, down (downy bromegrass, Bromus tectorum), Russian thistle (Salsola kali), field poppy (Papaver rhoeas), field violet (Viola arvensis), foxtail, green (green foxtail, Setaria viridis), deadnettle (henbit deadnettle, Lamium amplexicaule), ryegrass, Ital. (Italian ryegrass, Lolium multiflorum), kochia (Kochia scoparia), lambsquarters (Chenopodium album), oilseed rape (Brassica napus), pigweed (Amaranthus retroflexus), chamomile (scentless chamomile, Matricaria inodora), speedwell (bird's-eye speedwell, Veronica persica), barley, spring (spring barley, Hordeum vulgare), wheat, spring (spring wheat, Triticum aestivum), buckwheat, wild (wild buckwheat, Polygonum convolvulus), wild mustard (Sinapis arvensis), oat, wild (wild oat, Avena fatua), radish, wild (wild radish, Raphanus raphanistrum), […]), barley, winter (winter barley, Hordeum vulgare), and wheat, winter (winter wheat, Triticum aestivum) were planted into a silt loam soil and treated preemergence with test chemicals formulated in a non-phytotoxic solvent mixture which included a surfactant. At the same time, these species were planted in pots containing Sunshine Redi-Earth® planting medium comprising spaghnum peat moss, vermiculite, starter nutrients and dolomitic limestone and treated with postemergence applications of the test chemicals formulated in the same manner. Plants ranged in height from 2 to 18 cm (1- to 4-leaf stage). Treated plants and controls were maintained in a controlled growth environment for 14 to 21 d after which time all species were compared to controls and visually evaluated. […] A dash (-) response means no test result.

oat, wild = assay: Test D preemergence; type: in vivo, Avena fatua; conditions: for Plant response rating (0 to 100), Oat, Wild: 16 g ai/ha, 0 is no effect, 100 is complete control; for Plant response rating: Oat, Wild: scale 0 to 100
Text: as §2

chamomile = assay: Test D preemergence; type: in vivo, Matricaria inodora; conditions: for Plant response rating (0 to 100), Chamomile: 16 g ai/ha, 0 is no effect, 100 is complete control; for Plant response rating: Chamomile: scale 0 to 100
Text: as §2

canarygrass [1] = assay: Test D postemergence; type: in vivo, Phalaris minor; conditions: scale 0 to 100
Text: as §2

chickweed = assay: Test D preemergence; type: in vivo, Stellaria media; conditions: for Plant response rating (0 to 100), Chickweed: 16 g ai/ha, 0 is no effect, 100 is complete control; for Plant response rating: Chickweed: scale 0 to 100
Text: as §2

corn = assay: Test C preemergence; type: in vivo, Zea mays; conditions: for Plant response rating (scale of 0 to 100 where 0 is no effect and 100 is complete control): Corn, preemergence; for Corn plant response rating (0 to 100): Preemergence, visual rating after 13 to 15 d
Text: as §1

speedwell = assay: Test D postemergence; type: in vivo, Veronica persica; conditions: scale 0 to 100
Text: as §2

deadnettle [2] = assay: Test D preemergence; type: in vivo, Lamium amplexicaule; conditions: for Plant response rating (0 to 100), Deadnettle: 16 g ai/ha, 0 is no effect, 100 is complete control; for Plant response rating: Deadnettle: scale 0 to 100
Text: as §2

canarygrass [3] = assay: Test D preemergence; type: in vivo, Phalaris minor; conditions: for Plant response rating (0 to 100), Canarygrass: 16 g ai/ha, 0 is no effect, 100 is complete control; for Plant response rating: Canarygrass: scale 0 to 100
Text: as §2

johnsongrass = assay: Test C preemergence; type: in vivo, Sorghum halepense; conditions: for Plant response rating (scale of 0 to 100 where 0 is no effect and 100 is complete control): Johnsongrass, preemergence; for Johnsongrass plant response rating (0 to 100): Preemergence, visual rating after 13 to 15 d
Text: as §1

deadnettle [4] = assay: Test D postemergence; type: in vivo, Lamium amplexicaule; conditions: scale 0 to 100
Text: as §2

## CCOc1nc(-c2ccc(C(F)(F)F)cc2)nn1Cc1ccnc(C(F)(F)F)c1 [Compound 35, 4-[[5-ethoxy-3-[4-(trifluoromethyl)phenyl]-1H-1,2,4-triazole-1-yl]methyl]-2-(trifluoromethyl)pyridine]
Wheat (winter wheat); 31 g ai/ha
  Wheat plant response rating (0 to 100): 5
Wheat (winter wheat); 62 g ai/ha
  Wheat plant response rating (0 to 100): 5
Wheat (winter wheat)
  Plant response rating (scale of 0 to 100 where 0 is no effect and 100 is complete control): 35
velvetleaf; 31 g ai/ha
  Velvetleaf plant response rating (0 to 100): 70
velvetleaf; 62 g ai/ha
  Velvetleaf plant response rating (0 to 100): 65
velvetleaf
  Plant response rating (scale of 0 to 100 where 0 is no effect and 100 is complete control): 90
bluegrass; 16 g ai/ha
  Plant response rating: Bluegrass: 45
bluegrass; 31 g ai/ha
  Plant response rating: Bluegrass: 70
bluegrass; 62 g ai/ha
  Plant response rating: Bluegrass: 75
bluegrass; 125 g ai/ha
  Plant response rating: Bluegrass: 95
oat, wild
  Plant response rating (0 to 100), Oat, Wild: 40
oat, wild; 62 g ai/ha
  Plant response rating: Oat, Wild: 75
oat, wild; 125 g ai/ha
  Plant response rating: Oat, Wild: 80
chamomile
  Plant response rating (0 to 100), Chamomile: 95
chamomile; 31 g ai/ha
  Plant response rating: Chamomile: 100
chamomile; 62 g ai/ha
  Plant response rating: Chamomile: 100
chamomile; 125 g ai/ha
  Plant response rating: Chamomile: 100
Canarygrass [1]; 16 g ai/ha
  Plant response rating: Canarygrass: 65
Canarygrass [1]; 31 g ai/ha
  Plant response rating: Canarygrass: 70
Canarygrass [1]; 62 g ai/ha
  Plant response rating: Canarygrass: 75
Canarygrass [1]; 125 g ai/ha
  Plant response rating: Canarygrass: 80
chickweed
  Plant response rating (0 to 100), Chickweed: 70
chickweed; 31 g ai/ha
  Plant response rating: Chickweed: 85
chickweed; 62 g ai/ha
  Plant response rating: Chickweed: 100
chickweed; 125 g ai/ha
  Plant response rating: Chickweed: 100
corn; 125 g ai/ha
  Plant response rating (scale of 0 to 100 where 0 is no effect and 100 is complete control): 35
corn; 250 g ai/ha
  Plant response rating (scale of 0 to 100 where 0 is no effect and 100 is complete control): 45
corn; 31 g ai/ha
  Corn plant response rating (0 to 100): 5
corn; 62 g ai/ha
  Corn plant response rating (0 to 100): 15
speedwell; 16 g ai/ha
  Plant response rating: Speedwell: 75
speedwell; 31 g ai/ha
  Plant response rating: Speedwell: 85
speedwell; 62 g ai/ha
  Plant response rating: Speedwell: 90
speedwell; 125 g ai/ha
  Plant response rating: Speedwell: 100
Deadnettle [2]
  Plant response rating (0 to 100), Deadnettle: 80
Deadnettle [2]; 31 g ai/ha
  Plant response rating: Deadnettle: 85
Deadnettle [2]; 62 g ai/ha
  Plant response rating: Deadnettle: 100
Deadnettle [2]; 125 g ai/ha
  Plant response rating: Deadnettle: 100
Canarygrass [3]
  Plant response rating (0 to 100), Canarygrass: 45
Canarygrass [3]; 31 g ai/ha
  Plant response rating: Canarygrass: 95
Canarygrass [3]; 62 g ai/ha
  Plant response rating: Canarygrass: 100
Canarygrass [3]; 125 g ai/ha
  Plant response rating: Canarygrass: 100
johnsongrass; 125 g ai/ha
  Plant response rating (scale of 0 to 100 where 0 is no effect and 100 is complete control): 95
johnsongrass; 250 g ai/ha
  Plant response rating (scale of 0 to 100 where 0 is no effect and 100 is complete control): 98
johnsongrass; 31 g ai/ha
  Johnsongrass plant response rating (0 to 100): 90
johnsongrass; 62 g ai/ha
  Johnsongrass plant response rating (0 to 100): 95
Deadnettle [4]; 16 g ai/ha
  Plant response rating: Deadnettle: 55
Deadnettle [4]; 31 g ai/ha
  Plant response rating: Deadnettle: 65
Deadnettle [4]; 62 g ai/ha
  Plant response rating: Deadnettle: 75
Deadnettle [4]; 125 g ai/ha
  Plant response rating: Deadnettle: 90

## Fc1ccc(-c2nc(OCC(F)(F)F)n(Cc3ccnc(C(F)(F)F)c3)n2)cc1 [Compound 30]
Wheat (winter wheat); 31 g ai/ha
  Wheat plant response rating (0 to 100): 0
Wheat (winter wheat); 62 g ai/ha
  Wheat plant response rating (0 to 100): 0
Wheat (winter wheat)
  Plant response rating (scale of 0 to 100 where 0 is no effect and 100 is complete control): 35
velvetleaf; 31 g ai/ha
  Velvetleaf plant response rating (0 to 100): 20
velvetleaf; 62 g ai/ha
  Velvetleaf plant response rating (0 to 100): 70
velvetleaf
  Plant response rating (scale of 0 to 100 where 0 is no effect and 100 is complete control): 85
bluegrass; 16 g ai/ha
  Plant response rating: Bluegrass: 65
bluegrass; 31 g ai/ha
  Plant response rating: Bluegrass: 70
bluegrass; 62 g ai/ha
  Plant response rating: Bluegrass: 75
bluegrass; 125 g ai/ha
  Plant response rating: Bluegrass: 80
oat, wild
  Plant response rating (0 to 100), Oat, Wild: 45
oat, wild; 62 g ai/ha
  Plant response rating: Oat, Wild: 70
oat, wild; 125 g ai/ha
  Plant response rating: Oat, Wild: 80
chamomile
  Plant response rating (0 to 100), Chamomile: 30
chamomile; 31 g ai/ha
  Plant response rating: Chamomile: 40
chamomile; 62 g ai/ha
  Plant response rating: Chamomile: 100
chamomile; 125 g ai/ha
  Plant response rating: Chamomile: 100
Canarygrass [1]; 16 g ai/ha
  Plant response rating: Canarygrass: 55
Canarygrass [1]; 31 g ai/ha
  Plant response rating: Canarygrass: 65
Canarygrass [1]; 62 g ai/ha
  Plant response rating: Canarygrass: 75
Canarygrass [1]; 125 g ai/ha
  Plant response rating: Canarygrass: 80
chickweed
  Plant response rating (0 to 100), Chickweed: 70
chickweed; 31 g ai/ha
  Plant response rating: Chickweed: 80
chickweed; 62 g ai/ha
  Plant response rating: Chickweed: 100
chickweed; 125 g ai/ha
  Plant response rating: Chickweed: 100
corn; 125 g ai/ha
  Plant response rating (scale of 0 to 100 where 0 is no effect and 100 is complete control): 30
corn; 250 g ai/ha
  Plant response rating (scale of 0 to 100 where 0 is no effect and 100 is complete control): 35
corn; 31 g ai/ha
  Corn plant response rating (0 to 100): 5
corn; 62 g ai/ha
  Corn plant response rating (0 to 100): 15
speedwell; 16 g ai/ha
  Plant response rating: Speedwell: 100
speedwell; 31 g ai/ha
  Plant response rating: Speedwell: 100
speedwell; 62 g ai/ha
  Plant response rating: Speedwell: 100
speedwell; 125 g ai/ha
  Plant response rating: Speedwell: 100
Deadnettle [2]
  Plant response rating (0 to 100), Deadnettle: 85
Deadnettle [2]; 31 g ai/ha
  Plant response rating: Deadnettle: 95
Deadnettle [2]; 62 g ai/ha
  Plant response rating: Deadnettle: 100
Deadnettle [2]; 125 g ai/ha
  Plant response rating: Deadnettle: 100
Canarygrass [3]
  Plant response rating (0 to 100), Canarygrass: 50
Canarygrass [3]; 31 g ai/ha
  Plant response rating: Canarygrass: 70
Canarygrass [3]; 62 g ai/ha
  Plant response rating: Canarygrass: 100
Canarygrass [3]; 125 g ai/ha
  Plant response rating: Canarygrass: 100
johnsongrass; 125 g ai/ha
  Plant response rating (scale of 0 to 100 where 0 is no effect and 100 is complete control): 85
johnsongrass; 250 g ai/ha
  Plant response rating (scale of 0 to 100 where 0 is no effect and 100 is complete control): 95
johnsongrass; 31 g ai/ha
  Johnsongrass plant response rating (0 to 100): 35
johnsongrass; 62 g ai/ha
  Johnsongrass plant response rating (0 to 100): 65
Deadnettle [4]; 16 g ai/ha
  Plant response rating: Deadnettle: 70
Deadnettle [4]; 31 g ai/ha
  Plant response rating: Deadnettle: 75
Deadnettle [4]; 62 g ai/ha
  Plant response rating: Deadnettle: 90
Deadnettle [4]; 125 g ai/ha
  Plant response rating: Deadnettle: 100
